Test results reported in US9068170B2, “Generation of pluripotent stem cells using recombinant proteins” (THE SCRIPPS RESEARCH INSTITUTE, priority 2008, dated 2015).
Entries after “also recorded” stand apart in the source; their conditions may differ.

Key:
[1] = tested on: mouse fibroblast cells treated with exogenous Oct4/Sox2/Klf4/Myc polypeptides; test: Oct4-positive colonies from an intermediate iPSC clone after small molecule treatment (Example 3, FIG. 5); format: cell-based; conditions: combined treatment 0.5 μM PD0325901, 3 μM CHIR99021, 0.5 μM A-83-01, counted 2 weeks after treatment
Experimental: FIG. 5. […] A comparison of the number of Oct4^+ iPS cell colonies generated from mouse fibroblast cells treated with exogenous Oct4/Sox2/Klf4/Myc polypeptides, and with or without 0.5 μM PD0325901, 3 μM CHIR99021, and 0.5 μM A-83-01. Y-axis represents percentage of Oct4′ colonies within total number of colonies.
We tested the TGFβ receptor inhibitor (A-83-01), MEK inhibitor (PD0325901) and GSK-3 inhibitor (CHIR99021), on mouse fibroblast cells that were treated with exogenous Oct4, Klf4, Sox2 and c-Myc polypeptides, for their effects on reprogramming kinetics and efficiency.
Mouse fibroblasts were grown in mESC growth medium [Knockout DMEM (Invitrogen) supplemented with 10% ES-FBS+10% KSR, 0.1 mM 2-ME, 1% Glutamax, 1% Non-essential amino acids, 1% EmbryoMax ESC Qualified Nucleosides (Millipore), and 10^3 units/ml LIF (ESGRO, Chemicon International)] supplemented with 8 μg/ml of Oct4/Sox2/Klf4/Myc (all four transcription factors are tagged with poly-Arg […]; SEQ ID NO:2) for 4-12 hours, followed by culturing the cells in the absence of the Oct4/Sox2/Klf4/Myc polypeptides for one day. This procedure was repeated 4 times. The cells were then cultured in mESC medium for another two weeks. iPSC clones were detected by colony morphology and expression of pluripotency markers. An intermediate iPSC clone, which expresses ALP but not Oct4 (Oct4), was dissociated with Trypsin-EDTA. The clone was then expanded by continuous culturing with regular mESC medium or medium supplemented with 0.5 μM PD0325901, 3 μM CHIR99021, 0.5 μM A-83-01. The number of Oct4-positive colonies were counted 2 weeks after small molecule treatment (FIG. 5).

[2] = tested on: Mouse fibroblasts; test: Induction of pluripotency in mouse fibroblasts by intermittent incubation with poly-Arg transcription factor proteins (Example 1); format: cell-based; conditions: added and/or combined during protein treatment of mouse fibroblasts
Experimental: Mouse fibroblasts were grown in mESC medium supplemented with 8 μg/ml of either Oct4/Sox2/Klf4 or Oct4/Sox2/Klf4/Myc (all proteins comprising poly-Arg as described above) for 6-8 hours, washed, and incubated for 2-3 days in mESC media without the above-listed transcription factors. This (4-12 hours with, 1-3 days without) was repeated a number (1, 2, 3, 4, or more) of times and then the cells were cultures in mESC for two weeks.

[3] = tested on: cellular reprogramming; test: Enhancement of cellular reprogramming by nuclear receptor ligands; format: cell-based
[4] = tested on: reprogramming efficiency; conditions: HDAC inhibitor; Huangfu et al. 2008a; cited from earlier work

| SMILES | effect on reprogramming efficiency and kinetics / iPSC generation (Oct4-positive colonies) [1] | effect on efficiency and speed of development of pluripotent cells [2] | other results |
| --- | --- | --- | --- |
| Cc1c[nH]c(-c2cnc(NCCNc3ccc(C#N)cn3)nc2-c2ccc(Cl)cc2Cl)n1 [CHIR99021] | increases reprogramming efficiency and accelerates reprogramming kinetics; also recorded: enhanced iPSC generation | improved efficiency and speed of development of pluripotent cells | – |
| CC(C)C[C@H](NC(=O)OCC1c2ccccc2-c2ccccc21)C(=O)O [Fmoc-Leu] | – | – | effect on cellular reprogramming ([3]; 5 μM): can enhance cellular reprogramming |
| C=C(c1ccc(C(=O)O)cc1)c1cc2c(cc1C)C(C)(C)CCC2(C)C [Bexarotene] | – | – | effect on cellular reprogramming ([3]; 3 μM): can enhance cellular reprogramming |
| Cc1cccc(-c2nn(C(=S)Nc3ccccc3)cc2-c2ccnc3ccccc23)n1 [A-83-01, 3-(6-Methyl-2-pyridinyl)-N-phenyl-4-(4-quinolinyl)-1H-pyrazole-1-carbothioamide] | increases reprogramming efficiency and accelerates reprogramming kinetics; also recorded: enhanced iPSC generation | – | – |
| NC(=O)c1ccc(-c2nc(-c3ccc4c(c3)OCO4)c(-c3ccccn3)[nH]2)cc1 [SB431542] | – | improved efficiency and speed of development of pluripotent cells | – |
| CCCC(CCC)C(=O)O [valproic acid] | – | – | effect on reprogramming efficiency [4]: can significantly improve the reprogramming efficiency |
| O=C(NOC[C@H](O)CO)c1ccc(F)c(F)c1Nc1ccc(I)cc1F [PD0325901] | increases reprogramming efficiency and accelerates reprogramming kinetics | improved efficiency and speed of development of pluripotent cells | effect on reprogramming efficiency and kinetics / iPSC generation (Oct4-positive colonies) ([1]; listed as PD0320501): enhanced iPSC generation |
